According to the kinase profiling compilation of Christmann-Franck et al. (2016):

Experiments:
Test in all cases: KINOMEscan competition binding
Details in all cases: compound 10.0 µM
TAOK3 (human) = TAOK3 (human) (UniProt Q9H2K8)
CSNK1G2 (human) = CSNK1G2 (human) (UniProt P78368)
MYLK4 (human) = MYLK4 (human) (UniProt Q86YV6)
MAP3K9 (human) = MAP3K9 (human) (UniProt P80192)
MYO3A (human) = MYO3A (human) (UniProt Q8NEV4)
PIM3 (human) = PIM3 (human) (UniProt Q86V86)
AAK1 (human) = AAK1 (human) (UniProt Q2M2I8)
CAMKK2 (human) = CAMKK2 (human) (UniProt Q96RR4)
NLK (human) = NLK (human) (UniProt Q9UBE8)
NEK2 (human) = NEK2 (human) (UniProt P51955)
AURKC (human) = AURKC (human) (UniProt Q9UQB9)
BMPR1B (human) = BMPR1B (human) (UniProt O00238)
MERTK (human) = MERTK (human) (UniProt Q12866)
NUAK2 (human) = NUAK2 (human) (UniProt Q9H093)
EPHA6 (human) = EPHA6 (human) (UniProt Q9UF33)
GSK3A (human) = GSK3A (human) (UniProt P49840)
PIP5K1A (human) = PIP5K1A (human) (UniProt Q99755)
STK32C (human) = STK32C (human) (UniProt Q86UX6)
FES (human) = FES (human) (UniProt P07332)
IKBKB (human) = IKBKB (human) (UniProt O14920)
ACVR1 (human) = ACVR1 (human) (UniProt Q04771)
CAMK2A (human) = CAMK2A (human) (UniProt Q9UQM7)
PKMYT1 (human) = PKMYT1 (human) (UniProt Q99640)
CDK15 (human) = CDK15 (human) (UniProt Q96Q40)
FGFR4 (human) = FGFR4 (human) (UniProt P22455)
AKT2 (human) = AKT2 (human) (UniProt P31751)
SIK1 (human) = SIK1 (human) (UniProt P57059)
MAPK10 (human) = MAPK10 (human) (UniProt P53779)
RPS6KA2 KD1 (human) = RPS6KA2 KD1 (human) (UniProt Q15349)
LCK (human) = LCK (human) (UniProt P06239)
STK24 (human) = STK24 (human) (UniProt Q9Y6E0)
CDK19 (human) = CDK19 (human) (UniProt Q9BWU1)
TGFBR1 (human) = TGFBR1 (human) (UniProt P36897)
STK35 (human) = STK35 (human) (UniProt Q8TDR2)
STK4 (human) = STK4 (human) (UniProt Q13043)
AKT3 (human) = AKT3 (human) (UniProt Q9Y243)
EPHB4 (human) = EPHB4 (human) (UniProt P54760)
MAP3K7 (human) = MAP3K7 (human) (UniProt O43318)
PTK2 (human) = PTK2 (human) (UniProt Q05397)
CLK2 (human) = CLK2 (human) (UniProt P49760)
CLK2 (human), sequence (P49760 whole entry, looked up): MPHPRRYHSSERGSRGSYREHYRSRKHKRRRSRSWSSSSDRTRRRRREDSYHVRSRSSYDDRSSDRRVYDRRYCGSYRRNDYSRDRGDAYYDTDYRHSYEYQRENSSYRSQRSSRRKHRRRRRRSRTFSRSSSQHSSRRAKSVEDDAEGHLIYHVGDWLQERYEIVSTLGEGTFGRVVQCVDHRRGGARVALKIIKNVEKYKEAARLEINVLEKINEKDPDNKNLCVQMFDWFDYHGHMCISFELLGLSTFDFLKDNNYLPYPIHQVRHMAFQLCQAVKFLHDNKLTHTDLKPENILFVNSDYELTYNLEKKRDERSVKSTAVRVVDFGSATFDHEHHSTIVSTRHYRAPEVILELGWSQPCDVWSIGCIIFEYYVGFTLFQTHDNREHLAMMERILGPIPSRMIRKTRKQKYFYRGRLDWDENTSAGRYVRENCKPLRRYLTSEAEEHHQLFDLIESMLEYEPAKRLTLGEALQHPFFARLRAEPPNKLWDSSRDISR

PKMYT1 (human), sequence (Q99640 whole entry, looked up): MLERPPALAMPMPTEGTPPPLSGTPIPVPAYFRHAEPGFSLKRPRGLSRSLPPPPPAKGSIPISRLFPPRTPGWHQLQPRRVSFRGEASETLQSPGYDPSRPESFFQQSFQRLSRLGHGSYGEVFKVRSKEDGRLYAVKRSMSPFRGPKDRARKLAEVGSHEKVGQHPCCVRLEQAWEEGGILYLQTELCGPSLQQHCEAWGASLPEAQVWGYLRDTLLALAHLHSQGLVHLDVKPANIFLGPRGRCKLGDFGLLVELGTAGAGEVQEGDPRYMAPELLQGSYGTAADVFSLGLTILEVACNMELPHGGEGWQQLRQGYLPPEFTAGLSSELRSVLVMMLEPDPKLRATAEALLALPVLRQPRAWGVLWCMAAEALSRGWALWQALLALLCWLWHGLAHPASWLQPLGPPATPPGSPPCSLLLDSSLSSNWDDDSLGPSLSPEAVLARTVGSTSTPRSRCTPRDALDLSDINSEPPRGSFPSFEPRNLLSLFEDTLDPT
PTK2 (human), sequence (Q05397 whole entry, looked up): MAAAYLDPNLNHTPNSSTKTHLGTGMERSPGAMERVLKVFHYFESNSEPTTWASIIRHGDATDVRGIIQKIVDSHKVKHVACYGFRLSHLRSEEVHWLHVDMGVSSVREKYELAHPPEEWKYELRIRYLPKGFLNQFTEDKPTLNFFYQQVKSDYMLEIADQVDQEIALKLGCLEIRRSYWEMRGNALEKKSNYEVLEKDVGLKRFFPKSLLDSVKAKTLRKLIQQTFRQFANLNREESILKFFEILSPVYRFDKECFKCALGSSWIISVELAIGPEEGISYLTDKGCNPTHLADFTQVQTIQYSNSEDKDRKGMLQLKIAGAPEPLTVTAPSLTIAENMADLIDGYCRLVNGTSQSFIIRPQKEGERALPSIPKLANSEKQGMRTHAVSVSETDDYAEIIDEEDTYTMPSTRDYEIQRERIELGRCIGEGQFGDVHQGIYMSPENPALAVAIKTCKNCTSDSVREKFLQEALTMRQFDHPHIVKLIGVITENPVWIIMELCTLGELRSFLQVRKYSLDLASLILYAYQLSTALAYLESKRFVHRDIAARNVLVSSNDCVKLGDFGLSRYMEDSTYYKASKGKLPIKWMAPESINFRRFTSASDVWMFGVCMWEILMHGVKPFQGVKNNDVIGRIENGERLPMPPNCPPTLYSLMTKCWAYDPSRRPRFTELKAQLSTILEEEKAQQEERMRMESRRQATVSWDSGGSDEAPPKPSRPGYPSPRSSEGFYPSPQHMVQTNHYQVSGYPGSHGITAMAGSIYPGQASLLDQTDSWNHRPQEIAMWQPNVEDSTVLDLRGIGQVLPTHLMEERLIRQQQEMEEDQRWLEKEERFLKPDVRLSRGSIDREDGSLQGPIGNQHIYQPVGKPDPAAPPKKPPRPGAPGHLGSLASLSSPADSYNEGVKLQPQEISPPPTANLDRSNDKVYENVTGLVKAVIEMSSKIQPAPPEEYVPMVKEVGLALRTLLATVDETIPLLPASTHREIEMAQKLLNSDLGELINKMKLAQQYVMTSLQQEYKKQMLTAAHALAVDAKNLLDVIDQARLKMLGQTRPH
TAOK3 (human), sequence (Q9H2K8 whole entry, looked up): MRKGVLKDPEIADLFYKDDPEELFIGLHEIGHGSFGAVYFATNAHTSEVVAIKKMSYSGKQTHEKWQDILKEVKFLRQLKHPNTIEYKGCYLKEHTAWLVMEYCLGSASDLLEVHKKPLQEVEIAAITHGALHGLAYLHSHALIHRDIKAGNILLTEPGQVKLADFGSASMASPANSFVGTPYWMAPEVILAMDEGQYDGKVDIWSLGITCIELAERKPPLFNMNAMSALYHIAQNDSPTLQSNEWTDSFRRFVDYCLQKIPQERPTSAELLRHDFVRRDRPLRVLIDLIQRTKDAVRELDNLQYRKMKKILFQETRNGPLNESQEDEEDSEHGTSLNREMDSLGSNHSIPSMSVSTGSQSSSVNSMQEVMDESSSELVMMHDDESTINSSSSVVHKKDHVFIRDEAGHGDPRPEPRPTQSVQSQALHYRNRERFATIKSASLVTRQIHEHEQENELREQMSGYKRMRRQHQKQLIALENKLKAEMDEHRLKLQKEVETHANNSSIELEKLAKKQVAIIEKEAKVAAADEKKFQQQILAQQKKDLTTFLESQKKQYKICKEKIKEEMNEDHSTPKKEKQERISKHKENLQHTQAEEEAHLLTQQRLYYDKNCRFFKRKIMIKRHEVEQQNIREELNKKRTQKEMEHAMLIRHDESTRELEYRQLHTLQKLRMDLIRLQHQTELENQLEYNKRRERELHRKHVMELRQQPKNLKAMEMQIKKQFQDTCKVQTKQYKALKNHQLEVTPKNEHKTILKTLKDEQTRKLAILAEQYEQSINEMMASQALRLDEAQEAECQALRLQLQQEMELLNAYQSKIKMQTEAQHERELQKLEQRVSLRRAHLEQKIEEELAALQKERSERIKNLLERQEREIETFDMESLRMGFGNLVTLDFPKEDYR
STK35 (human), sequence (Q8TDR2 whole entry, looked up): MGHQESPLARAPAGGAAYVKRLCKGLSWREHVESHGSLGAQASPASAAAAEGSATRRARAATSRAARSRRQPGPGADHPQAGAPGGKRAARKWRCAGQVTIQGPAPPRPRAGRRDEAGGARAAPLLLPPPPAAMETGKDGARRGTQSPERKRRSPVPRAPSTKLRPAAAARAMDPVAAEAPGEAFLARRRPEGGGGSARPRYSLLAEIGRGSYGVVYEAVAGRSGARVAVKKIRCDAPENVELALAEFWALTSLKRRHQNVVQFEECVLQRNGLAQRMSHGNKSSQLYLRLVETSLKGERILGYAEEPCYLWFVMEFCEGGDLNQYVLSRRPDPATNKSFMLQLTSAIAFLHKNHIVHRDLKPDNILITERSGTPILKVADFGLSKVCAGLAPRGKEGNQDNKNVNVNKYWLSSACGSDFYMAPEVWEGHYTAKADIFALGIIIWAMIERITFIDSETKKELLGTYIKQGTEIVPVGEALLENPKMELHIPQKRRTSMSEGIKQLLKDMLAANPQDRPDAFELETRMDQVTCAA
STK4 (human), sequence (Q13043 whole entry, looked up): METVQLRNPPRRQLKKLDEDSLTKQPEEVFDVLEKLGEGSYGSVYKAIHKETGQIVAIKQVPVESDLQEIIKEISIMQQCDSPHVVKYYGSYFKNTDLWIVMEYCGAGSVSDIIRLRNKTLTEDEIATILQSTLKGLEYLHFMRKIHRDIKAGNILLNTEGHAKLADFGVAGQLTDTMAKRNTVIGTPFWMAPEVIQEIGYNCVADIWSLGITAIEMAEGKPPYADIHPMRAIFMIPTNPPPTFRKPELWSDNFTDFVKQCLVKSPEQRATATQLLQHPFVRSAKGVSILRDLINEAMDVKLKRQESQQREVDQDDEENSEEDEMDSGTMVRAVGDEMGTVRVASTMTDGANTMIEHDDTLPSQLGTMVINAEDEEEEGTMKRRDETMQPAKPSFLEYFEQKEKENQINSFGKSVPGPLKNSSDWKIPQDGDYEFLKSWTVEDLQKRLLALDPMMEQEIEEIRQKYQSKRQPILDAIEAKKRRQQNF
LCK (human), sequence (P06239 whole entry, looked up): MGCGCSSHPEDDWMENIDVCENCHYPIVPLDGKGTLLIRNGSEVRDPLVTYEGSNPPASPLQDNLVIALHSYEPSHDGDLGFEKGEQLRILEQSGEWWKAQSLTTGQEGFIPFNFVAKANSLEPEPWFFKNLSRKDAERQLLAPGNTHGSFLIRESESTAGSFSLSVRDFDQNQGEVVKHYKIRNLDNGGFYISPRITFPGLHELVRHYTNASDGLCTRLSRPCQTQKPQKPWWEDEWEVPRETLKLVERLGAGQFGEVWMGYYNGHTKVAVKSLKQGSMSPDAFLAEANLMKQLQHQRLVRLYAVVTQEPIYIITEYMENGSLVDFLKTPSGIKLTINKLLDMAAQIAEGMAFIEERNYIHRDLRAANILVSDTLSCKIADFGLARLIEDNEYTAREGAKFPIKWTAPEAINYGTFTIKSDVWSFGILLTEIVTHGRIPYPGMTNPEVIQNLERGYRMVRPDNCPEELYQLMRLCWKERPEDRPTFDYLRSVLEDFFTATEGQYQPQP
MAPK10 (human), sequence (P53779 whole entry, looked up): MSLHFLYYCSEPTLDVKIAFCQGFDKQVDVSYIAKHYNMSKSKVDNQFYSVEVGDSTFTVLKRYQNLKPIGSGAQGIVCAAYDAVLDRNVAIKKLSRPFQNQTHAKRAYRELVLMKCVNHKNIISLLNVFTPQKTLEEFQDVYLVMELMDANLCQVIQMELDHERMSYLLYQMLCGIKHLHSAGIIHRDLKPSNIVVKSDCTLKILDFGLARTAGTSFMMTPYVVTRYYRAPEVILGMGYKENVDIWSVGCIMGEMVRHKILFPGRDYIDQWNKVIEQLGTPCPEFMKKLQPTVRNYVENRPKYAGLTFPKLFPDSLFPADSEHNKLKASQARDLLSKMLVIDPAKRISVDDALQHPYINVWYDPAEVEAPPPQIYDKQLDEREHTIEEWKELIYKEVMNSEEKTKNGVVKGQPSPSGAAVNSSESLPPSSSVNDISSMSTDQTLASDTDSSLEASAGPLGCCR

SMILES: C=CC(=O)Nc1cc(NC(=O)c2ccc(C)c(NC(=O)c3ccno3)c2)cc(C(F)(F)F)c1
- kinase still bound, per cent of control (TAOK3 (human)): 77%
- kinase still bound, per cent of control (CSNK1G2 (human)): 100%
- kinase still bound, per cent of control (MYLK4 (human)): 97%
- kinase still bound, per cent of control (MAP3K9 (human)): 98%
- kinase still bound, per cent of control (MYO3A (human)): 93%
- kinase still bound, per cent of control (PIM3 (human)): 100%
- kinase still bound, per cent of control (AAK1 (human)): 77%
- kinase still bound, per cent of control (CAMKK2 (human)): 69%
- kinase still bound, per cent of control (NLK (human)): 93%
- kinase still bound, per cent of control (NEK2 (human)): 100%
- kinase still bound, per cent of control (AURKC (human)): 100%
- kinase still bound, per cent of control (BMPR1B (human)): 100%
- kinase still bound, per cent of control (MERTK (human)): 99%
- kinase still bound, per cent of control (NUAK2 (human)): 97%
- kinase still bound, per cent of control (EPHA6 (human)): 93%
- kinase still bound, per cent of control (GSK3A (human)): 100%
- kinase still bound, per cent of control (PIP5K1A (human)): 100%
- kinase still bound, per cent of control (STK32C (human)): 100%
- kinase still bound, per cent of control (FES (human)): 100%
- kinase still bound, per cent of control (IKBKB (human)): 90%
- kinase still bound, per cent of control (ACVR1 (human)): 84%
- kinase still bound, per cent of control (CAMK2A (human)): 91%
- kinase still bound, per cent of control (PKMYT1 (human)): 83%
- kinase still bound, per cent of control (CDK15 (human)): 93%
- kinase still bound, per cent of control (FGFR4 (human)): 100%
- kinase still bound, per cent of control (AKT2 (human)): 100%
- kinase still bound, per cent of control (SIK1 (human)): 97%
- kinase still bound, per cent of control (MAPK10 (human)): 86%
- kinase still bound, per cent of control (RPS6KA2 KD1 (human)): 100%
- kinase still bound, per cent of control (LCK (human)): 45%
- kinase still bound, per cent of control (STK24 (human)): 100%
- kinase still bound, per cent of control (CDK19 (human)): 96%
- kinase still bound, per cent of control (TGFBR1 (human)): 96%
- kinase still bound, per cent of control (STK35 (human)): 100%
- kinase still bound, per cent of control (STK4 (human)): 99%
- kinase still bound, per cent of control (AKT3 (human)): 100%
- kinase still bound, per cent of control (EPHB4 (human)): 87%
- kinase still bound, per cent of control (MAP3K7 (human)): 98%
- kinase still bound, per cent of control (PTK2 (human)): 91%
- kinase still bound, per cent of control (CLK2 (human)): 80%

SMILES: Cn1c(=O)n(-c2ccc(C(C)(C)C#N)cc2)c2c3cc(-c4cnc5ccccc5c4)ccc3ncc21
- kinase still bound, per cent of control (TAOK3 (human)): 100%
- kinase still bound, per cent of control (CSNK1G2 (human)): 100%
- kinase still bound, per cent of control (MYLK4 (human)): 100%
- kinase still bound, per cent of control (MAP3K9 (human)): 100%
- kinase still bound, per cent of control (MYO3A (human)): 100%
- kinase still bound, per cent of control (PIM3 (human)): 100%
- kinase still bound, per cent of control (AAK1 (human)): 100%
- kinase still bound, per cent of control (CAMKK2 (human)): 100%
- kinase still bound, per cent of control (NLK (human)): 100%
- kinase still bound, per cent of control (NEK2 (human)): 100%
- kinase still bound, per cent of control (AURKC (human)): 100%
- kinase still bound, per cent of control (BMPR1B (human)): 100%
- kinase still bound, per cent of control (MERTK (human)): 100%
- kinase still bound, per cent of control (NUAK2 (human)): 100%
- kinase still bound, per cent of control (EPHA6 (human)): 100%
- kinase still bound, per cent of control (GSK3A (human)): 100%
- kinase still bound, per cent of control (PIP5K1A (human)): 100%
- kinase still bound, per cent of control (STK32C (human)): 100%
- kinase still bound, per cent of control (FES (human)): 100%
- kinase still bound, per cent of control (IKBKB (human)): 100%
- kinase still bound, per cent of control (ACVR1 (human)): 100%
- kinase still bound, per cent of control (CAMK2A (human)): 100%
- kinase still bound, per cent of control (PKMYT1 (human)): 100%
- kinase still bound, per cent of control (CDK15 (human)): 100%
- kinase still bound, per cent of control (FGFR4 (human)): 100%
- kinase still bound, per cent of control (AKT2 (human)): 100%
- kinase still bound, per cent of control (SIK1 (human)): 100%
- kinase still bound, per cent of control (MAPK10 (human)): 100%
- kinase still bound, per cent of control (RPS6KA2 KD1 (human)): 100%
- kinase still bound, per cent of control (LCK (human)): 100%
- kinase still bound, per cent of control (STK24 (human)): 100%
- kinase still bound, per cent of control (CDK19 (human)): 100%
- kinase still bound, per cent of control (TGFBR1 (human)): 100%
- kinase still bound, per cent of control (STK35 (human)): 100%
- kinase still bound, per cent of control (STK4 (human)): 100%
- kinase still bound, per cent of control (AKT3 (human)): 100%
- kinase still bound, per cent of control (EPHB4 (human)): 100%
- kinase still bound, per cent of control (MAP3K7 (human)): 100%
- kinase still bound, per cent of control (PTK2 (human)): 100%
- kinase still bound, per cent of control (CLK2 (human)): 100%
